Measured values from ChEMBL document CHEMBL2074334, “Altered hepatobiliary disposition of acetaminophen glucuronide in isolated perfused livers from multidrug resistance-associated protein 2-deficient TR(-) rats” (J Pharmacol Exp Ther, 2000).

Target: ATP-binding cassette sub-family C member 2 (Rattus norvegicus, UniProt Q63120)
Assay: TP_TRANSPORTER: decrease in biliary excretion in isolated perfused liver from TR- rat
Type: functional

ATP-binding cassette sub-family C member 2, sequence (Q63120 whole entry, the tested form may be a part): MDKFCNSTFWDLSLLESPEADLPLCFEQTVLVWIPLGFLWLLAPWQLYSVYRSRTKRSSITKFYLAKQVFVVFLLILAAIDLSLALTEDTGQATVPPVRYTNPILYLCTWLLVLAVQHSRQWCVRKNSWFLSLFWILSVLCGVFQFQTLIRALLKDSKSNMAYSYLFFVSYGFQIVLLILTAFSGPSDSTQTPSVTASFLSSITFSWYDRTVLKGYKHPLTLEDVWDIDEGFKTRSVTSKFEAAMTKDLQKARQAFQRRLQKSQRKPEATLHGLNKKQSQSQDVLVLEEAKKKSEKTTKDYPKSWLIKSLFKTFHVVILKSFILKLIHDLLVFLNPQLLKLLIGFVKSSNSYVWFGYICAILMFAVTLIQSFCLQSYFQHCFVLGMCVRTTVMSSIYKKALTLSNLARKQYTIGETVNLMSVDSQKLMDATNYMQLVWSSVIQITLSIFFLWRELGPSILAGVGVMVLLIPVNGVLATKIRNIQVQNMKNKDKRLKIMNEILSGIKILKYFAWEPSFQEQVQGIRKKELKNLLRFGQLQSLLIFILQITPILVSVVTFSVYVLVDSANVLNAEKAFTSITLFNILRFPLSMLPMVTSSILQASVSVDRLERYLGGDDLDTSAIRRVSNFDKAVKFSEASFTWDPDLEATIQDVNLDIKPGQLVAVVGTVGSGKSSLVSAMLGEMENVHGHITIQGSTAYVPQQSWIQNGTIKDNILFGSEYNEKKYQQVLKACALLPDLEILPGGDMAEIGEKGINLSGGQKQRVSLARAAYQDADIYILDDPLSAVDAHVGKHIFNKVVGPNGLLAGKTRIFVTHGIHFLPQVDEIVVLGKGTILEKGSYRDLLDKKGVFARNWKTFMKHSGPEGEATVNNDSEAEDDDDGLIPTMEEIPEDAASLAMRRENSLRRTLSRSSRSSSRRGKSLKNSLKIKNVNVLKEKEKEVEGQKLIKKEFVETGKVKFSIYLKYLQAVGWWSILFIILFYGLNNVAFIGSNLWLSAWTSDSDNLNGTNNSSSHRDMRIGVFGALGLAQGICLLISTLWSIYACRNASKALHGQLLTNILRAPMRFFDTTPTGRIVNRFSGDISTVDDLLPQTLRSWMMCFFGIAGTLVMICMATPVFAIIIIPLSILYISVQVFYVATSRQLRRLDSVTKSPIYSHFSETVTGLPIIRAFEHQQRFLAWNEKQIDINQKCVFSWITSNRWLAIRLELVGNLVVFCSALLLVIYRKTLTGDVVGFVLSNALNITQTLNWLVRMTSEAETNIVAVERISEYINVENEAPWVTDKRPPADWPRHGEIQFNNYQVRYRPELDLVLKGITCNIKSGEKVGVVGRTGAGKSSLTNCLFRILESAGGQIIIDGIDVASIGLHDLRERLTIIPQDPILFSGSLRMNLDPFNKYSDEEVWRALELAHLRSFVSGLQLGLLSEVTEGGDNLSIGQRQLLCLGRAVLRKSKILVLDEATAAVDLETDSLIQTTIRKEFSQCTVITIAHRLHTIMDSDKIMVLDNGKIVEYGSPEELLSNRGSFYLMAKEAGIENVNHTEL

Activity | Structure (SMILES)
substrate [+] | CC(=O)Nc1ccccc1.O=S(=O)(O)O
substrate [+] | CC(=O)Nc1ccc(O[C@@H]2O[C@H](C(=O)O)[C@@H](O)[C@H](O)[C@H]2O)cc1 [ACETAMINOPHEN GLUCURONIDE]
